Test results taken from ChEMBL document CHEMBL1201862, “PubChem BioAssay data set” (2004).
Activity calls are given as the source filed them.

Assays:
Paired box protein Pax-8 = Paired box protein Pax-8 (Homo sapiens, UniProt Q06710); experiment: PAX8 transcriptional activity inhibition in RMG-I – RMG-I cells, luciferase, cherry-pick, dose response (AID 687027); assay type: functional, cell-based;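 also: luciferase reporter driven by Pax8 target thyroperoxidase promoter measured by SteadyGlo luminescence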
[1] = target: Luciferin 4-monooxygenase (Photinus pyralis, UniProt P08659); experiment: Counter Screen for Luciferase-based Assay Positives. [Related pubchem assays: 620, 618, 411 ]
[2] = general cell-killing toxicity readout – plate reader, dry powder samples, cytotoxicity control for PAX8 inhibitor project, dose response (AID 743021); assay type: functional, cell-based
HT-1080 = experiment: HT1080 cell viability loss – fluorescence readout (AID 620); assay type: functional, cell-based; details: Homo sapiens
[3] = target: T1, Microphthalmia-associated transcription factor (Homo sapiens, UniProt O75030); experiment: reducers of TRPM1 reporter luminescence, concentration series – cell-based, SK-MEL-5, cherry-picked, set 3, MITF inhibitor project, dose response (AID 493073); assay type: functional;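 also: SK-MEL-5 melanoma cells with luciferase driven by the MITF target TRPM1 promoter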
T1 sequence (O75030 whole entry): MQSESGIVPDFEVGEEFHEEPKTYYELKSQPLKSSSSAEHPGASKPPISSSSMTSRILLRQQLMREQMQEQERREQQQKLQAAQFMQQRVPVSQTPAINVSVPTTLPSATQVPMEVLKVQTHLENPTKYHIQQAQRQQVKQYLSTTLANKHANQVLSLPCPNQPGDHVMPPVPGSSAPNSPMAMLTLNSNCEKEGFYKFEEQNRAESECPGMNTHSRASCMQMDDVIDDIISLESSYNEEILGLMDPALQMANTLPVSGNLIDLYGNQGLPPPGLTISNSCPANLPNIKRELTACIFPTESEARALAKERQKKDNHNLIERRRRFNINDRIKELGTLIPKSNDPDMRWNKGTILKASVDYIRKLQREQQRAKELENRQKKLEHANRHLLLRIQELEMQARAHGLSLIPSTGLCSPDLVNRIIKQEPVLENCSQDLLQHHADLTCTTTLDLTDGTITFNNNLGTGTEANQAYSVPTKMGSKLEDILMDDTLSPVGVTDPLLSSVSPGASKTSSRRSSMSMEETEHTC

Vero = experiment: cells; assay type: functional; details: Chlorocebus sabaeus
[4] = THP-1 cell cytotoxicity, dose response, cytotoxicity control for non-replicating M. tuberculosis project (AID 489025); assay type: functional
cells = assay type: functional
[5] = viability of HCT116 lacking mutant beta-catenin – cell-based, human colon tumor, dose response (AID 1045); assay type: functional;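 also: HCT116 colon tumor cells with beta catenin knocked out; cells exposed to compound for 60 hours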
[6] = HepG2 cell cytotoxicity, dose response, cytotoxicity control for non-replicating M. tuberculosis project (AID 489018); assay type: functional; details: Mycobacterium tuberculosis
[7] = Vero E6 cell cytotoxicity, dose response, cytotoxicity control for non-replicating M. tuberculosis project, secondary assay (AID 492998); assay type: functional, VeroE6; details: Vero C1008
[8] = viability of PTEN-deleted HCT116 cells – cell-based, HCT116 PTEN knockout, dose response (AID 1047); assay type: functional;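 also: HCT116 colon tumor cells with PTEN knocked out; cells exposed to compound for 60 hours before readout; potency for loss of cell viability measured by luminescence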
[9] = decrease of insulin promoter-GFP reporter – imaging, high-content screening, mouse beta cells (AID 1628); assay type: functional; details: MIN6
Cytochrome P450 2C9 = Cytochrome P450 2C9 (Homo sapiens, UniProt P11712)
[10] = MIN6 cell viability loss – mouse insulinoma, cytotoxicity control, dose response (AID 2122); assay type: functional;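 also: confirmatory high-throughput counterscreen run to flag cytotoxic compounds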
[11] = target: T2, Lysine-specific demethylase 4C (Homo sapiens, UniProt Q9H3R0); experiment: inhibition of JMJD2C H3K9me3 demethylation – biochemical, DELFIA europium, cherry-picked samples, dose response (AID 488835); assay type: functional
T2 sequence (Q9H3R0 whole entry): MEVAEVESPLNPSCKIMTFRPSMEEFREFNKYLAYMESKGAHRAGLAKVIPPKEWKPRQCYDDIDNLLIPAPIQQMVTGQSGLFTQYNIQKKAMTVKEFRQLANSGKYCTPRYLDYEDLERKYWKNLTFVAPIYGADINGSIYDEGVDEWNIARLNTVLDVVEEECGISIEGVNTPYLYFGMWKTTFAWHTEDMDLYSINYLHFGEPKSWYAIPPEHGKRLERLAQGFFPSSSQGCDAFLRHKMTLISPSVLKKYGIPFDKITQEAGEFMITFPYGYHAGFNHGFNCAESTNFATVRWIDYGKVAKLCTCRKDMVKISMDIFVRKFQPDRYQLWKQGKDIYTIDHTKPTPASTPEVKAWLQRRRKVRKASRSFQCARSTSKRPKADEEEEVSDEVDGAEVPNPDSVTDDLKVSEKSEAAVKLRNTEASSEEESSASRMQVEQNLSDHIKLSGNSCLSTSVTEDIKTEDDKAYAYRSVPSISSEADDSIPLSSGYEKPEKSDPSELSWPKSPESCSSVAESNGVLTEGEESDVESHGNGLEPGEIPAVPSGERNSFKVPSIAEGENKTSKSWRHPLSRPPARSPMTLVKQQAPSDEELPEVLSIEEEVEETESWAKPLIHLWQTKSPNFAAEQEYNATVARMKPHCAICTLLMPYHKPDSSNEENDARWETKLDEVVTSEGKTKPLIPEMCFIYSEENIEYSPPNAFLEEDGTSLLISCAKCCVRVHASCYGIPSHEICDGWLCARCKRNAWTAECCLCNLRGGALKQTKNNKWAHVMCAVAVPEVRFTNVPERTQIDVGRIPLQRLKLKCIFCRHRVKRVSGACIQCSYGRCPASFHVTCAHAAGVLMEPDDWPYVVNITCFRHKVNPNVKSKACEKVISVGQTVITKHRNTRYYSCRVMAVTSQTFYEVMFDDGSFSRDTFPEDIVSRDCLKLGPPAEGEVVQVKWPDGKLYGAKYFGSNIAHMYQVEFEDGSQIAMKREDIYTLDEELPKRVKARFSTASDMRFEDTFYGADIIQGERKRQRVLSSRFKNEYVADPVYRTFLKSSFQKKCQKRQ

[12] = viability loss of HPDE-C7K cells – cell-based, fluorescence, HTS, primary screen (AID 431); assay type: functional; details: Homo sapiens
[13] = target: T3, Replicative DNA helicase DnaB (Mycobacterium tuberculosis, UniProt P9WMR3); experiment: DnaB intein splicing inhibitors, dose response, biochemical, cell-free fluorescence (AID 449749); assay type: functional
T3 sequence (P9WMR3 whole entry): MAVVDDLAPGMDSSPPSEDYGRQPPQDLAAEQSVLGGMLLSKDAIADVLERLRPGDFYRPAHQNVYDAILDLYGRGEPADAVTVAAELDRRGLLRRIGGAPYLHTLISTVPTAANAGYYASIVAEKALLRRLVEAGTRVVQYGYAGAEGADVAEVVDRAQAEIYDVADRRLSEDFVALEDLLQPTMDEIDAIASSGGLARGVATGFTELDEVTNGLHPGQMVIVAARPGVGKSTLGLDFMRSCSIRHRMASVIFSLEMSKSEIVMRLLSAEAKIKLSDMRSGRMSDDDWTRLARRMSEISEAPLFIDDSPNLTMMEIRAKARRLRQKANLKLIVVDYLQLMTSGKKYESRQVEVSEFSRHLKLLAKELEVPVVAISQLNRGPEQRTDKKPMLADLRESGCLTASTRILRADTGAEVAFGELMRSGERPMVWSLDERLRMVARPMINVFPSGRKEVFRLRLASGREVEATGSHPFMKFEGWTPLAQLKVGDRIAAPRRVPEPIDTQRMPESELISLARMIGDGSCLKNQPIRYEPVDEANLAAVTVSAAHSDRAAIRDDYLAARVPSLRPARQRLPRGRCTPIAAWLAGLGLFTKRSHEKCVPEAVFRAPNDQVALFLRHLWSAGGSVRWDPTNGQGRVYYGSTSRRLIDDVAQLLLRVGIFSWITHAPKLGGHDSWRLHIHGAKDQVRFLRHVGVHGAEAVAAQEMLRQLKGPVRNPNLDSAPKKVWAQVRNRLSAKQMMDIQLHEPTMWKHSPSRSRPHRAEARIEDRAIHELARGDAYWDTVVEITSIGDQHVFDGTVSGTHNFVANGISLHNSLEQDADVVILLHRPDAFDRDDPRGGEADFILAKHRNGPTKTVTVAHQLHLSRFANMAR

Protein RecA = target: T4, Protein RecA (Mycobacterium tuberculosis, UniProt P9WHJ3); experiment: Fluorescence Cell-Free Homogeneous Dose Retest to Identify Inhibitors of RecA-Intein Splicing Activity. [Related pubchem assays (depositor defined):AID2097, AID2223, AID489010, AID492950]; assay type: functional
T4 sequence (P9WHJ3 whole entry): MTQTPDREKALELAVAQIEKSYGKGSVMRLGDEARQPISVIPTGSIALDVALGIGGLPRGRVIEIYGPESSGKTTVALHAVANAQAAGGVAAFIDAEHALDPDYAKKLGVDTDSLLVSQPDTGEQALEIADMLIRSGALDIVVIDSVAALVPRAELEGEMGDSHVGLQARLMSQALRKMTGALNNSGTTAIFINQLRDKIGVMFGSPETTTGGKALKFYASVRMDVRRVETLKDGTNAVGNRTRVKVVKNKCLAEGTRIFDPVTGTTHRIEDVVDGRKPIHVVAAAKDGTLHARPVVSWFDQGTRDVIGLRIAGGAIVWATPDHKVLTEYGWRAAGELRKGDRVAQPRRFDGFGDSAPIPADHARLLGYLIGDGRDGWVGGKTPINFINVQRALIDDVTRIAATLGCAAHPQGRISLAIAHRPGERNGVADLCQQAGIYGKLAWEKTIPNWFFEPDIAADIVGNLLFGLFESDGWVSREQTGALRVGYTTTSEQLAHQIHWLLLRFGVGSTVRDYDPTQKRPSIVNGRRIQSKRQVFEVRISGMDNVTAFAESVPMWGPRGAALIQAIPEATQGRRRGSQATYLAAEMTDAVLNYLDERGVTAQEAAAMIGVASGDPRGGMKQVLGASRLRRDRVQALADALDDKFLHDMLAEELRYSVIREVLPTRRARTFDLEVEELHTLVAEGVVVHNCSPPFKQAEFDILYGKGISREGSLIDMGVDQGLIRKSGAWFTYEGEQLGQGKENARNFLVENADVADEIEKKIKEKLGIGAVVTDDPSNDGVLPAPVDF

[14] = Trypanosoma cruzi growth suppression in host cells – NIH3T3 host cells, beta-gal luminescence, confirmation (AID 2044); assay type: functional, cell-based;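 also: intracellular parasites grown in NIH/3T3 mouse fibroblasts as host cells; luminescent beta-galactosidase reporter signal from transgenic T. cruzi replicating inside host cells; inhibitors lower the luminescence signal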
[15] = HPDE-C7 pancreatic duct cell viability loss – fluorescence, HTS (AID 430); assay type: functional, cell-based; details: Homo sapiens
[16] = NIH3T3 cell viability loss – ATP luminescence, mouse fibroblasts, counter-screen, dose response (AID 2010); assay type: functional, cell-based;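 also: cells exposed to compound for about 90 hours before reading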
Genome polyprotein = Genome polyprotein (dengue virus type 2, UniProt P29990); experiment: flavivirus cap methylation enzyme inhibition – biochemical, confirmation dose response, primary screen (AID 588689); assay type: functional
[17] = target: T5, Alkaline phosphatase, tissue-nonspecific isozyme (Homo sapiens, UniProt P05186); experiment: TNAP enzyme inhibition by screening hits, dose response, selectivity assay for mouse IAP inhibitor project, biochemical, human TNAP, uHTS hits (AID 488906); assay type: functional
T5 sequence (P05186 whole entry): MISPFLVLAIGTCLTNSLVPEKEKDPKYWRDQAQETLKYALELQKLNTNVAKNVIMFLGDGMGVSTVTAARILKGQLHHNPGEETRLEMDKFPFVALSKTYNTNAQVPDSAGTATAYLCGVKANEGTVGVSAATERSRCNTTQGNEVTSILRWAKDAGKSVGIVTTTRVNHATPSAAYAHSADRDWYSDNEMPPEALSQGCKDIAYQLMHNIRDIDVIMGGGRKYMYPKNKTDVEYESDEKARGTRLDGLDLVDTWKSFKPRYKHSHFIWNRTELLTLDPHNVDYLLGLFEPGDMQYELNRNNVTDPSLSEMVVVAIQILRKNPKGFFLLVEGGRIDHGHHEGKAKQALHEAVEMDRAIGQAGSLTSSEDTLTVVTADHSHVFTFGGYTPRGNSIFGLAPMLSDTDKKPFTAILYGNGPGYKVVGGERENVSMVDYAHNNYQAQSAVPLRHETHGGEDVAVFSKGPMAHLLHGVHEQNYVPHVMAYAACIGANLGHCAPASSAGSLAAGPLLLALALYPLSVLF

[18] = target: Intestinal-type alkaline phosphatase (Homo sapiens, UniProt P09923); experiment: inhibition of human intestinal alkaline phosphatase – biochemical, dose response (AID 488876); assay type: functional
[19] = target: Intestinal-type alkaline phosphatase (Mus musculus, UniProt P24822); experiment: PubChem AID 488785; assay type: functional
Chain of Intestinal-type alkaline phosphatase (Mus musculus, UniProt P24822) (P24822 whole entry): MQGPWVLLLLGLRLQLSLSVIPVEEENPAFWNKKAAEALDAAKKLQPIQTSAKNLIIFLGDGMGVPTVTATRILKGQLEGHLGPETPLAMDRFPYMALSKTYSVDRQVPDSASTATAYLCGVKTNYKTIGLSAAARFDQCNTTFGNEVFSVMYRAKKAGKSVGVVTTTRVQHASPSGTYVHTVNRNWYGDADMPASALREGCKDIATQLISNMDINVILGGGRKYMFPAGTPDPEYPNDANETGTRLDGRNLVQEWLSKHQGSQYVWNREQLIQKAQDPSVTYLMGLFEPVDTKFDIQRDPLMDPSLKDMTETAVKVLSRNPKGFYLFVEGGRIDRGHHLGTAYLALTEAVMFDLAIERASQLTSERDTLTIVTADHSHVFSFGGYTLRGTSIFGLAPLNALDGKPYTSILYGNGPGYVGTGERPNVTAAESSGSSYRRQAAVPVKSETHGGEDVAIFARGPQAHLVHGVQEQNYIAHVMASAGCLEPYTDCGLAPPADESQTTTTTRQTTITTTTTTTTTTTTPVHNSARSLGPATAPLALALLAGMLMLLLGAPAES

Chain of Genome polyprotein (P29990 2492-3391 limits assumed): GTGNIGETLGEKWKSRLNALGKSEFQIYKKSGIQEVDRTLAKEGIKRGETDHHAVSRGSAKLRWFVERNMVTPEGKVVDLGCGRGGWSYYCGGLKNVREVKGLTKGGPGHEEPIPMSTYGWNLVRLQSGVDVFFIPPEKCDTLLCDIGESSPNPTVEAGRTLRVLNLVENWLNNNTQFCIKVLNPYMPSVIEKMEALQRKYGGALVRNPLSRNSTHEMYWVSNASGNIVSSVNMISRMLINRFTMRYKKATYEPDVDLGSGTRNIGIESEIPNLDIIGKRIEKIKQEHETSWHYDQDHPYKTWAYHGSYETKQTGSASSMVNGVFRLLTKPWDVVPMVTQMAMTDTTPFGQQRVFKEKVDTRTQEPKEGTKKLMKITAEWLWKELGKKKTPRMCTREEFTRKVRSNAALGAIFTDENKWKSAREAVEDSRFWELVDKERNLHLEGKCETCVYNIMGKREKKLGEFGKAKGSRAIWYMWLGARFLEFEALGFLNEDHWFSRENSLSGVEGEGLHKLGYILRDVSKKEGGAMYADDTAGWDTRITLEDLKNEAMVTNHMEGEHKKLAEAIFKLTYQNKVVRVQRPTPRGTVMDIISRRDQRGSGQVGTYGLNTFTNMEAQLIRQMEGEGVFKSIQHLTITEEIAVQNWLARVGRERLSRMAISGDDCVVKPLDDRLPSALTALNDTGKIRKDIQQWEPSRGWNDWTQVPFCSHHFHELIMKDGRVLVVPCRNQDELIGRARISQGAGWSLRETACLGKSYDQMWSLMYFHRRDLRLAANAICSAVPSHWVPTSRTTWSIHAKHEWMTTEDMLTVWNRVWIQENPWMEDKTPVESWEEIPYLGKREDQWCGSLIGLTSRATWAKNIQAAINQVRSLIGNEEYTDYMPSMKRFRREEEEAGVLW
Chain of Paired box protein Pax-8 (Q06710 whole entry): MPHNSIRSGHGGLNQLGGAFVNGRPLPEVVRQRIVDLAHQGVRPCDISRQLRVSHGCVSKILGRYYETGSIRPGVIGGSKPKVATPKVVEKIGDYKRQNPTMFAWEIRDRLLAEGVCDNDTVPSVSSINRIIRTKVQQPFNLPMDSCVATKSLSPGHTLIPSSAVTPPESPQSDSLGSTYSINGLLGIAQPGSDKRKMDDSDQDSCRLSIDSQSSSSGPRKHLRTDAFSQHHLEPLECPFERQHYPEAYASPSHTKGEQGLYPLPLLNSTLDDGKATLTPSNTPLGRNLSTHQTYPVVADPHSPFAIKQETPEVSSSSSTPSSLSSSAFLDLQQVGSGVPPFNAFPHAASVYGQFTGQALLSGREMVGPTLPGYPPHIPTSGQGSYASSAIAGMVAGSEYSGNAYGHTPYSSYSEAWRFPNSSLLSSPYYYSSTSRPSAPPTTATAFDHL
Chain of Luciferin 4-monooxygenase (P08659 whole entry): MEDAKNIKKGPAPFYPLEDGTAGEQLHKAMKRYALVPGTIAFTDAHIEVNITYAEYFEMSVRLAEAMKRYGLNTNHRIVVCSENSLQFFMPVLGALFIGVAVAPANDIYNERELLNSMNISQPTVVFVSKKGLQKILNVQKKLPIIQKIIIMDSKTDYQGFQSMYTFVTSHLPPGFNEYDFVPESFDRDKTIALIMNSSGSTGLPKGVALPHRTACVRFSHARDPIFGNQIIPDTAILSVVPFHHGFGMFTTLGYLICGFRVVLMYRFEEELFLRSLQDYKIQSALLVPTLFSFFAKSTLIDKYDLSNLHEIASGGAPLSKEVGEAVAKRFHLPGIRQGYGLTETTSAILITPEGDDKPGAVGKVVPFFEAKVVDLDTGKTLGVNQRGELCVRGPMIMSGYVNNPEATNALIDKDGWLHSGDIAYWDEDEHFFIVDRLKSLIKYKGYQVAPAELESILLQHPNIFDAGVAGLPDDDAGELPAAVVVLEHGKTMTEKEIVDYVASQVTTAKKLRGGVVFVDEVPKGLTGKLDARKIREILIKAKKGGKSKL
Chain of Cytochrome P450 2C9 (P11712 whole entry): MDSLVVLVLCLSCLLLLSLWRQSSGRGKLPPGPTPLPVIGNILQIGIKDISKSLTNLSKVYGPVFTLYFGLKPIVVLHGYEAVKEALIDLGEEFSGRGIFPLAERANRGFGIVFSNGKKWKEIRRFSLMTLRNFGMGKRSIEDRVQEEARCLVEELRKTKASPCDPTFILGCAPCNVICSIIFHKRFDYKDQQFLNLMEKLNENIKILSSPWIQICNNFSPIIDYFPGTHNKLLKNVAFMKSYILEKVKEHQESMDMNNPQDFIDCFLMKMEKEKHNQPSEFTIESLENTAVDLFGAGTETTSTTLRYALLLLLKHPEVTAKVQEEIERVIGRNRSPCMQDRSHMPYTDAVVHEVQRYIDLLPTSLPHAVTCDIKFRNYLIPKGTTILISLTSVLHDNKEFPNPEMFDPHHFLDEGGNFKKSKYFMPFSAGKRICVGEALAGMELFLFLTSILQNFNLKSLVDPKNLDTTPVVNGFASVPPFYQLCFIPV
Chain of Intestinal-type alkaline phosphatase (Homo sapiens, UniProt P09923) (P09923 whole entry): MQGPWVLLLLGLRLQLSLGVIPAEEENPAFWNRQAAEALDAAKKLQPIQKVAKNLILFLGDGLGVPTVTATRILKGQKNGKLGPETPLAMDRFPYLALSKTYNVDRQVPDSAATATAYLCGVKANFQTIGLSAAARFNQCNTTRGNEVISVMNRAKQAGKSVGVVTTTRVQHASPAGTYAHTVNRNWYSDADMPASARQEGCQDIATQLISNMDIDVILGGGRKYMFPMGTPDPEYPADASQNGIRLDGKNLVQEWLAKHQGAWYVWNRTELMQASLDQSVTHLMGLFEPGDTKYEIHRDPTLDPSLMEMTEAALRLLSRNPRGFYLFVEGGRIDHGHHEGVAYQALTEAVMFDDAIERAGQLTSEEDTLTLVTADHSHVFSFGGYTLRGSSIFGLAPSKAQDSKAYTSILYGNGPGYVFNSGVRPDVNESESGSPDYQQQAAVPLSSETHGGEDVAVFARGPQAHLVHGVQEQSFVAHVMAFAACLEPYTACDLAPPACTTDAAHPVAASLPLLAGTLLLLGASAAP

## Cc1cc(C)c2c(N)c(C(=O)Nc3ncc(C)s3)sc2n1
Paired box protein Pax-8
  AC50: 2.92 µM (active)
[1]
  EC50: < 0.2 µM (active)
[2]
  AC50: 36.7 µM (active)
HT-1080
  EC50: > 50 µM (not active)
[3]
  AC50: 1.09 µM (active)

## CCOc1cc(CNCCO)cc(Br)c1OCc1ccccc1Cl
Vero
  CC50: 13.8 µM (active)
[4]
  CC50: 11.5 µM (active)
cells
  IC50: 18.4 µM (active)
[5]
  EC50: 9.13 µM (active)
[6]
  CC50: 14.1 µM (active)
[7]
  CC50: 19.7 µM (active)
[8]
  EC50: 9.8 µM (active)
[9]
  IC50: 1.43 µM (active)
Cytochrome P450 2C9
  AC50: 28.2 µM (inconclusive)
[10]
  IC50: 1.56 µM (active)

## Nc1c(Cl)ncnc1NCc1cccnc1
[11]
  AC50: 5.63 µM (active)

## N=c1c2c(-c3ccccc3)c(-c3ccccc3)n(Cc3ccco3)c2ncn1Cc1ccco1
[12]
  EC50: 11.9 µM (active)
[13]
  AC50: 6.15 µM (active)
Protein RecA
  EC50: 8.76 µM (active)
[14]
  EC50: 0.68 µM (active)
[15]
  EC50: 7.73 µM (active)
[5]
  EC50: 0.891 µM (active)
[16]
  EC50: 13.5 µM (active)
[8]
  EC50: 1.16 µM (active)
[9]
  IC50: 1.72 µM (active)
[10]
  IC50: 2.49 µM (active)

## CC1=NN(c2ccc(C)cc2C)C(=O)C1C(c1ccccc1)C1C(=O)N(c2ccc(C)cc2C)N=C1C (centres undefined)
[13]
  AC50: 0.523 µM (active)
Protein RecA
  EC50: 0.431 µM (active)
[11]
  AC50: 16.3 µM (active)
Genome polyprotein
  IC50: 48.8 µM (active)

## O=C(CCNS(=O)(=O)c1ccc2[nH]c(=O)oc2c1)Nc1ccccc1
[17]
  IC50: 17.8 µM (active)
[18]
  IC50: 26.9 µM (active)
[19]
  IC50: 2.4 µM (active)

## Cn1c(/N=C/c2cc(Cl)ccc2O)nc2ccccc21
[11]
  AC50: 10.4 µM (active)
